Experimental data as given in US20260324639A1, “MICROBIOCIDAL PYRAZOLE DERIVATIVES” (SYNGENTA CROP PROTECTION AG, priority 2022, published 2026).

Key:
[1] = test system: Mycosphaerella graminicola; test: Mycosphaerella graminicola (Septoria tritici)/liquid culture (Septoria blotch); assay type: cell-based; settings: Zymoseptoria tritici, liquid culture, PDB, 24° C., growth inhibition photometric 4-5 days after application, read-out: control of Mycosphaerella graminicola compared to untreated control
Method: (§1) Conidia of the fungus from cryogenic storage are directly mixed into nutrient broth (PDB potato dextrose broth). After placing a (DMSO) solution of test compound into a microtiter plate (96-well format), the nutrient broth containing the fungal spores is added. The test plates are incubated at 24° C. and the inhibition of growth is determined photometrically 4-5 days after application.

Monographella nivalis = Monographella nivalis (Microdochium nivale)/liquid culture (foot rot cereals); assay type: cell-based; settings: liquid culture, PDB, 24° C., growth inhibition photometric 4-5 days after application, read-out: control of Monographella nivalis compared to untreated control
Method: as §1

Mycosphaerella arachidis = Mycosphaerella arachidis (Cercospora arachidicola)/liquid culture (early leaf spot); assay type: cell-based; settings: liquid culture, PDB, 24° C., growth inhibition photometric 4-5 days after application, read-out: control of Mycosphaerella arachidis compared to untreated control
Method: as §1

Pyrenophora teres = test: Pyrenophora teres/barley/leaf disc preventative (net blotch); assay type: in vivo; settings: 200 ppm, barley leaf segments cv. Hasso, inoculated 2 days after application, assessed 5-7 days after application
Method: Barley leaf segments cv. Hasso are placed on agar in a multiwell plate (24-well format) and sprayed with the formulated test compound diluted in water. The leaf segments are inoculated with a spore suspension of the fungus 2 days after application. The inoculated leaf segments are incubated at 20° C. and 65% rh under a light regime of 12 h light/12 h darkness in a climate cabinet and the activity of a compound is assessed as disease control compared to untreated when an appropriate level of disease damage appears in untreated check leaf segments (5-7 days after application).

Glomerella lagenarium = Glomerella lagenarium (Colletotrichum lagenarium)/liquid culture (anthracnose); assay type: cell-based; settings: Colletotrichum orbiculare, liquid culture, PDB, 24° C., growth inhibition photometric 3-4 days after application, read-out: control of Glomerella lagenarium compared to untreated control
Method: as §1, with “measured” for “determined”, “3-4” for “4-5”

Phaeosphaeria nodorum = Phaeosphaeria nodorum (Septoria nodorum)/wheat/leaf disc preventative (glume blotch); assay type: in vivo; settings: 200 ppm, wheat leaf segments cv. Kanzler, inoculated 2 days after application, assessed 5-7 days after application
Method: Wheat leaf segments cv. Kanzler are placed on agar in a multiwell plate (24-well format) and sprayed with the formulated test compound diluted in water. The leaf disks are inoculated with a spore suspension of the fungus 2 days after application. The inoculated test leaf disks are incubated at 20° C. and 75% rh under a light regime of 12 h light/12 h darkness in a climate cabinet and the activity of a compound is assessed as percent disease control compared to untreated when an appropriate level of disease damage appears in untreated check leaf disks (5-7 days after application).

Botryotinia fuckeliana = Botryotinia fuckeliana (Botrytis cinerea)/liquid culture (gray mould); assay type: cell-based; settings: liquid culture, Vogels broth, 24° C., growth inhibition photometric 3-4 days after application, read-out: control of Botryotinia fuckeliana compared to untreated control
Method: as §1, with “(Vogels” for “(PDB potato dextrose”, “3-4” for “4-5”

Alternaria solani = test: Alternaria solani/tomato/leaf disc (early blight); assay type: in vivo; settings: 200 ppm; tomato leaf disks cv. Baby; inoculated 2 days after application; assessed 5-7 days after application
Method: Tomato leaf disks cv. Baby are placed on agar in multiwell plates (24-well format) and sprayed with the formulated test compound diluted in water. The leaf disks are inoculated with a spore suspension of the fungus 2 days after application. The inoculated leaf disks are incubated at 23° C./21° C. (day/night) and 80% rh under a light regime of 12/12 h (light/dark) in a climate cabinet and the activity of a compound is assessed as percent disease control compared to untreated when an appropriate level of disease damage appears on untreated check disk leaf disks (5-7 days after application).

SMILES	inhibition of growth at 20 ppm [1] [%]	inhibition of growth at 20 ppm (Monographella nivalis) [%]	inhibition of growth at 20 ppm (Mycosphaerella arachidis) [%]	control of Pyrenophora teres compared to untreated control (Pyrenophora teres)	inhibition of growth at 20 ppm (Glomerella lagenarium) [%]	control of Phaeosphaeria nodorum compared to untreated control (Phaeosphaeria nodorum)	inhibition of growth at 20 ppm (Botryotinia fuckeliana) [%]	control of Alternaria solani compared to untreated control (Alternaria solani)
COc1ccc2c(c1)C(c1cnn(C)c1)CN(C(=O)c1nnn(-c3ccc(F)cc3F)n1)C2C (racemic) [Compound P-34, [2-(2,4-difluorophenyl)tetrazol-5-yl]-[6-methoxy-1-methyl-4-(1-methylpyrazol-4-yl)-3,4-dihydro-1H-isoquinolin-2-yl]methanone]	≥ 80	≥ 80	≥ 80					
Cc1c([C@H]2CN(C(=O)c3cnn(-c4ccc(F)cc4F)n3)[C@@H](C)c3ccccc32)cnn1C (racemic) [Compound P-40, [2-(2,4-difluorophenyl)triazol-4-yl]-[rac-(1S,4S)-4-(1,5-dimethylpyrazol-4-yl)-1-methyl-3,4-dihydro-1H-isoquinolin-2-yl]methanone]	≥ 80			at least 80%				
COc1ccc2c(c1)[C@H](c1cnn(C)c1)CN(C(=O)c1nnn(-c3ccccc3)n1)[C@@H]2C (single isomer, unassigned) [Compound P-36]	≥ 80	≥ 80	≥ 80					
COc1ccc2c(c1)[C@@H](c1cnn(C)c1)CN(C(=O)c1nnn(-c3ccc(F)cc3F)n1)[C@H]2C (single isomer, unassigned) [Compound P-38]	≥ 80	≥ 80	≥ 80					
Cc1nn(C)c(C)c1C1CN(C(=O)c2cn(-c3ccccc3)nn2)Cc2ccccc21 (stereo not shown) [Compound P-7, (1-phenyltriazol-4-yl)-[4-(1,3,5-trimethylpyrazol-4-yl)-3,4-dihydro-1H-isoquinolin-2-yl]methanone]	≥ 80		≥ 80					
Cn1cc(C2CN(C(=O)c3cn(-c4ccc(F)cc4F)nn3)Cc3ccccc32)cn1 (stereo not shown) [Compound P-8, [1-(2,4-difluorophenyl)triazol-4-yl]-[4-(1-methylpyrazol-4-yl)-3,4-dihydro-1H-isoquinolin-2-yl]methanone]				at least 80%				
Cn1cc(C2CN(C(=O)c3cn(-c4ccccc4)nn3)Cc3ccccc32)cn1 (stereo not shown) [Compound P-11, [4-(1-methylpyrazol-4-yl)-3,4-dihydro-1H-isoquinolin-2-yl]-(1-phenyltriazol-4-yl)methanone]	≥ 80				≥ 80			
Cn1cc(C2CN(C(=O)c3nnn(-c4ccccc4)n3)Cc3ccccc32)cn1 (stereo not shown) [Compound P-14, [4-(1-methylpyrazol-4-yl)-3,4-dihydro-1H-isoquinolin-2-yl]-(2-phenyltetrazol-5-yl)methanone]	≥ 80	≥ 80	≥ 80	at least 80%	≥ 80	at least 80%	≥ 80	at least 80%
Cn1cc(C2CN(C(=O)c3cnn(-c4ccc(F)cc4)n3)Cc3ccccc32)cn1 (stereo not shown) [Compound P-18, [2-(4-fluorophenyl)triazol-4-yl]-[4-(1-methylpyrazol-4-yl)-3,4-dihydro-1H-isoquinolin-2-yl]methanone]	≥ 80	≥ 80						
Cc1c(C2CN(C(=O)c3nnn(-c4ccc(F)cc4F)n3)Cc3ccccc32)cnn1C (stereo not shown) [Compound P-31, [2-(2,4-difluorophenyl)tetrazol-5-yl]-[4-(1,5-dimethylpyrazol-4-yl)-3,4-dihydro-1H-isoquinolin-2-yl]methanone]	≥ 80	≥ 80	≥ 80	at least 80%	≥ 80	at least 80%	≥ 80	at least 80%
Cn1cc(C2(C)CN(C(=O)c3nnn(-c4ccc(F)cc4F)n3)Cc3ccccc32)cn1 (stereo not shown) [Compound P-32, [2-(2,4-difluorophenyl)tetrazol-5-yl]-[4-methyl-4-(1-methylpyrazol-4-yl)-1,3-dihydroisoquinolin-2-yl]methanone]	≥ 80							
COc1ccc2c(c1)C(c1cnn(C)c1)CN(C(=O)c1nnn(-c3ccccc3)n1)C2C (stereo not shown) [Compound P-35, [6-methoxy-1-methyl-4-(1-methylpyrazol-4-yl)-3,4-dihydro-1H-isoquinolin-2-yl]-(2-phenyltetrazol-5-yl)methanone]	≥ 80	≥ 80	≥ 80	at least 80%	≥ 80		≥ 80	
Cc1c([C@@H]2CN(C(=O)c3cn(-c4ncc(F)cc4F)nn3)[C@H](C)c3ccccc32)cnn1C [Compound P-44, [1-(3,5-difluoro-2-pyridyl)triazol-4-yl]-[(1R,4R)-4-(1,5-dimethylpyrazol-4-yl)-1-methyl-3,4-dihydro-1H-isoquinolin-2-yl]methanone]	≥ 80		≥ 80		≥ 80			
C[C@H]1c2ccccc2[C@@H](c2cnn(C)c2Cl)CN1C(=O)c1cnn(-c2ccc(F)cc2F)n1 [Compound P-45, [(1S,4S)-4-(5-chloro-1-methyl-pyrazol-4-yl)-1-methyl-3,4-dihydro-1H-isoquinolin-2-yl]-[2-(2,4-difluorophenyl)triazol-4-yl]methanone]	≥ 80							
C[C@@H]1c2ccccc2[C@H](c2cnn(C)c2Cl)CN1C(=O)c1cn(-c2ccc(F)cc2F)nn1 [Compound P-47, [(1R,4R)-4-(5-chloro-1-methyl-pyrazol-4-yl)-1-methyl-3,4-dihydro-1H-isoquinolin-2-yl]-[1-(2,4-difluorophenyl)triazol-4-yl]methanone]	≥ 80		≥ 80					
C[C@@H]1c2ccccc2[C@H](c2cnn(C)c2Cl)CN1C(=O)c1nnn(-c2ccc(F)cc2F)n1 [Compound P-50, [(1R,4R)-4-(5-chloro-1-methyl-pyrazol-4-yl)-1-methyl-3,4-dihydro-1H-isoquinolin-2-yl]-[2-(2,4-difluorophenyl)tetrazol-5-yl]methanone]	≥ 80							
Cc1c(C2CN(C(=O)c3cn(-c4ncc(F)cc4F)nn3)Cc3ccccc32)cnn1C (stereo not shown) [Compound P-57, [1-(3,5-difluoro-2-pyridyl)triazol-4-yl]-[4-(1,5-dimethylpyrazol-4-yl)-3,4-dihydro-1H-isoquinolin-2-yl]methanone]	≥ 80			at least 80%		at least 80%		at least 80%
